Source: patent US11034661B2, “Substituted N′-hydroxycarbamimidoyl-1,2,5-oxadiazole compounds as indoleamine 2,3-dioxygenase IDO inhibitors” (Merck Sharp & Dohme Corp., priority 2017, dated 2021)

How the values were obtained:
HIS-tagged IDO1 protein = HIS-tagged IDO1 protein (Homo sapiens (Human), UniProt P14902); assay: IDO1 Enzyme Assay; format: biochemical; conditions: recombinant IDO1 40 nM, tryptophan substrate, fluorescence readout
Procedure, shortened: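 Recombinant E. coli-expressed HIS-IDO1 (40 nM final) in 50 mM Tris pH 7.0 with methylene blue, ascorbate and catalase, preincubated with compound 30 min at RT, then tryptophan added and reacted 60 min at RT. Quenched with methyl isonipecotate, heated, fluorescence read (ex 400/em 510 nm); IC50 from four-parameter logistic fit.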

[1] = molecular target: IDO1 in Hela cells stimulated with IFNγ (Homo sapiens (Human), UniProt P14902); assay: IDO1 Cellular Assay in Hela Cells Stimulated with IFNγ; format: cell-based; conditions: IFNγ 100 ng/mL, about 48 hours, fluorescence readout, read-out: IDO1 HELA Cell Assay, IC50
Chain of IDO1 in Hela cells stimulated with IFNγ (P14902 whole entry): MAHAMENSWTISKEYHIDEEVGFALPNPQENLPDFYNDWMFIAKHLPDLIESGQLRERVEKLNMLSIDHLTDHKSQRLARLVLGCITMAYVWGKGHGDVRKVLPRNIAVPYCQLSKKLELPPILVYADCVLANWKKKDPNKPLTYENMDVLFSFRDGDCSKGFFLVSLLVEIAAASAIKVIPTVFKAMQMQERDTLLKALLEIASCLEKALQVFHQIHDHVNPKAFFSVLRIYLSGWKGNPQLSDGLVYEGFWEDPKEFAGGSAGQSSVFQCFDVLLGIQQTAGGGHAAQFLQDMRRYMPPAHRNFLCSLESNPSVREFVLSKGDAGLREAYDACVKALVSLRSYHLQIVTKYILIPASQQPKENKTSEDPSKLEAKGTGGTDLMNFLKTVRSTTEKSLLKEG
Procedure, shortened: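 IFNγ-stimulated (100 ng/mL) HeLa cells with 300 uM L-tryptophan were incubated with 10-point 3-fold compound dilutions for about 48 h at 37 °C. Kynurenine product was derivatized with methyl isonipecotate overnight and read by fluorescence (ex 400/em 510 nm). Signal was background-corrected using non-IFNγ cells and normalized to DMSO, and IC50 came from a four-parameter logistic fit.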

[2] = molecular target: IDO1 in human whole blood stimulated with LPS and IFNγ (Homo sapiens (Human), UniProt P14902); assay: IDO1 Human Whole Blood Assay; format: cell-based; conditions: LPS and IFNγ 100 ng/mL, 18 h, kynurenine by LC/MS/MS
Chain of IDO1 in human whole blood stimulated with LPS and IFNγ (P14902 whole entry): as above
Procedure: IDO1 Human Whole Blood Assay
Compounds to be tested were serially diluted in ten 3-fold steps in DMSO starting from 10 mM. 3 μL of compound dilutions or DMSO alone were then dispensed from the dilution plate into a polypropylene 96-well assay plate containing 97 μL of RPMI using an Echo 555 acoustic liquid handler (Labcyte). LPS and IFNγ was prepared in RPMI to a 10× of final conc. (1000 ng/mL), final concentration is 100 ng/mL.
Human whole blood was drawn in sodium heparin coated tubes from healthy internal donors. Two hundred forty μL of blood was transferred to each of the wells of a v-bottom 96 well plate. Thirty μL of compound was transferred from intermediate dilution plate, and incubated for 15 min. Thirty μL from stimulants was then transferred to blood and mixed thoroughly. Plate was covered with breathable membrane and incubated at 37° C. for overnight (18 h).
On day 2 isotope labeled standard of kynurenine and tryptophan was made in water at 10× concentration and 30 μL was added to the blood at 3 μM final concentration. The assay plates were centrifuged at 300×G for 10 min with no brake to separate plasma from red blood cells. Sixty μL of plasma samples was removed without disturbing red blood cells. Plasma was diluted with RPMI in 1:1 ratio and proteins were precipitated out with two volume of Acetonitrile. The plates was centrifuged at 4000×G for 60 min. Twenty μL of supernatant was carefully transferred to a 384 well plate contain 40 μL of 0.1% formic acid in water and analyzed by LC/MS/MS.
LC/MS/MS analyses were performed using Thermo Fisher's LX4-TSQ Quantum Ultra system. This system consists of four Agilent binary high-performance liquid chromatography (HPLC) pumps and a TSQ Quantum Ultra triple quadruple MS/MS instrument. For each sample, 5 μL were injected onto an Atlantis T3 column (2.1 mm×150 mm, 3 μm particle size) from Waters. The mobile phase gradient pumped at 0.8 mL/min was used to elute the analytes from the column at 25° C. The elution started at 0% B increasing linearly to 25% B at 6.5 min, holding at 25% for 1 min, re-equilibrating to 10 min. Mobile phase A consisted of 0.1% formic acid in water. Mobile phase B consisted of 0.1% of formic acid in acetonitrile. Data was acquired in positive mode using a HESI interface. The operational parameters for the TSQ Quantum Ultra instrument were a spray voltage of 4000 V, capillary temperature of 380° C., vaporizer temperature 400° C., shealth gas 60 arbitrary units, Aux gas 20 arbitrary units, tube lens 85 and collision gas 1.2 mTorr. SRM chromatograms of kynurenine (Q 1: 209.2>Q3:94.0) and internal standard (Q1: 215.3>Q3:98.2) were collected for 90 sec. The peak area was integrated by Xcalibur Quan software. The ratios between the kynurenine generated in the reaction and 2D6-Kynurenine spiked-in internal standard were used to generate percentage inhibition and IC50 values. Compounds were titrated and IC50's were calculated by 4 parameter sigmoidal curve fitting formula.

Chain of HIS-tagged IDO1 protein (P14902 whole entry): as above

| SMILES | IC50 (HIS-tagged IDO1 protein) [nM] | IC50 [1] [nM] | IDO1 human whole blood assay, IC50 [2] [nM] |
| --- | --- | --- | --- |
| NS(=O)(=O)NCCOc1nonc1/C(=N/O)N[C@H]1Cc2ccc(F)cc21 [Example 1, (S)—N-(4-fluorobicyclo[4.2.0]octa-1(6),2,4-trien-7-yl)-N′-hydroxy-4-(2-(sulfamoylamino)ethoxy)-1,2,5-oxadiazole-3-carboximidamide] | 49.3 | 106 | 666.4 |
| O=C(CO)N1CC(Oc2nonc2/C(=N/O)N[C@H]2Cc3ccc(F)cc32)C1 [Example 2, (S)—N-(4-fluorobicyclo[4.2.0]octa-1(6),2,4-trien-7-yl)-N′-hydroxy-4-((1-(2-hydroxyacetyl)azetidin-3-yl)oxy)-1,2,5-oxadiazole-3-carboximidamide] | 75.7 | 93.5 | 232.5 |
| CC(=O)NCCOc1nonc1/C(=N/O)N[C@H]1Cc2ccc(F)cc21 [Example 3, (S)—N-(2-((4-(N-(4-fluorobicyclo[4.2.0]octa-1(6),2,4-trien-7-yl)-N′-hydroxycarbamimidoyl)-1,2,5-oxadiazol-3-yl)oxy)ethyl)acetamide] | 58.5 | 51.4 | 185.4 |
| O=C(COc1nonc1/C(=N/O)N[C@H]1Cc2ccc(F)cc21)NCCO [Example 4, (S)-2-((4-(N-(4-fluorobicyclo[4.2.0]octa-1(6),2,4-trien-7-yl)-N′-hydroxycarbamimidoyl)-1,2,5-oxadiazol-3-yl)oxy)-N-(2-hydroxyethyl)acetamide] | 139 | 324 | 1414 |
| O=C(CO)NCCOc1nonc1/C(=N/O)N[C@H]1Cc2ccc(F)cc21 [Example 5, N-{2-[(4-{N-[(7S)-4-fluorobicyclo[4.2.0]octa-1,3,5-trien-7-yl]-N′-hydroxycarbamimidoyl}-1,2,5-oxadiazol-3-yl)oxy]ethyl}-2-hydroxyacetamide] | 114 | 322 | 714.9 |
| CS(=O)(=O)NCCOc1nonc1/C(=N/O)N[C@H]1Cc2ccc(F)cc21 [Example 6, N-[(7S)-4-fluorobicyclo[4.2.0]octa-1,3,5-trien-7-yl]-N′-hydroxy-4-{2-[(methylsulfonyl)amino]ethoxy}-1,2,5-oxadiazole-3-carboximidamide] | 48.3 | 58.3 | 351.3 |
| C[C@@H](CO)NC(=O)COc1nonc1/C(=N/O)N[C@H]1Cc2ccc(F)cc21 [Example 7, 2-[(4-{N-[(7S)-4-fluorobicyclo[4.2.0]octa-1,3,5-trien-7-yl]-N′-hydroxycarbamimidoyl}-1,2,5-oxadiazol-3-yl)oxy]-N-[(2S)-1-hydroxypropan-2-yl]acetamide] | 72 | 88.6 | 1176 |
| NC(=O)NCCOc1nonc1/C(=N/O)NC1Cc2ccc(F)cc21 (stereo not drawn) [Example 11, 4-[2-(carbamoylamino)ethoxy]-N-(4-fluorobicyclo[4.2.0]octa-1,3,5-trien-7-yl)-N′-hydroxy-1,2,5-oxadiazole-3-carboximidamide] | 74.8 | 194 | 262.4 |
| O=C(c1nc[nH]n1)N1CC(Oc2nonc2/C(=N/O)N[C@H]2Cc3ccc(F)cc32)C1 [Example 30, N-[(7S)-4-fluorobicyclo[4.2.0]octa-1,3,5-trien-7-yl]-N′-hydroxy-4-{[1-(1H-1,2,4-triazole-3-carbonyl)azetidin-3-yl]oxy}-1,2,5-oxadiazole-3-carboximidamide] | 56 | 65.9 | 665.5 |
| CCC(=O)NCCOc1nonc1/C(=N/O)N[C@H]1Cc2ccc(F)cc21 [Example 33, N-{2-[(4-{N-[(7S)-4-fluorobicyclo[4.2.0]octa-1,3,5-trien-7-yl]-N′-hydroxycarbamimidoyl}-1,2,5-oxadiazol-3-yl)oxy]ethyl}propanamide] | 39.8 | 53 | 503.3 |
| CC(=O)N[C@H]1C[C@@H](Oc2nonc2/C(=N/O)N[C@H]2Cc3ccc(F)cc32)C1 [Example 36, N-{cis-3-[(4-{N-[(7S)-4-fluorobicyclo[4.2.0]octa-1,3,5-trien-7-yl]-N′-hydroxycarbamimidoyl}-1,2,5-oxadiazol-3-yl)oxy]cyclobutyl}acetamide] | 50.7 | 42.1 | 314.2 |
| O=C(CO)N[C@H]1C[C@@H](Oc2nonc2/C(=N/O)N[C@H]2Cc3ccc(F)cc32)C1 [Example 38, N-{cis-3-[(4-{N-[(7S)-4-fluorobicyclo[4.2.0]octa-1,3,5-trien-7-yl]-N′-hydroxycarbamimidoyl}-1,2,5-oxadiazol-3-yl)oxy]cyclobutyl}-2-hydroxyacetamide] | 67.8 | 74.9 | 518.6 |
| NC(=O)N[C@H]1C[C@@H](Oc2nonc2/C(=N/O)N[C@H]2Cc3ccc(F)cc32)C1 [Example 42, 4-{[cis-3-(carbamoylamino)cyclobutyl]oxy}-N-[(7S)-4-fluorobicyclo[4.2.0]octa-1,3,5-trien-7-yl]-N′-hydroxy-1,2,5-oxadiazole-3-carboximidamide] | 49 | 40 | 387.6 |
| NS(=O)(=O)N[C@H]1C[C@@H](Oc2nonc2/C(=N/O)N[C@H]2Cc3ccc(F)cc32)C1 [Example 43, N-[(7S)-4-fluorobicyclo[4.2.0]octa-1,3,5-trien-7-yl]-N′-hydroxy-4-{[cis-3-(sulfamoylamino)cyclobutyl]oxy}-1,2,5-oxadiazole-3-carboximidamide] | 36.6 | 45.4 | 1440 |
| O=C(N1CC(Oc2nonc2/C(=N/O)N[C@H]2Cc3ccc(F)cc32)C1)C1(O)CC1 [Example 47, N-[(7S)-4-fluorobicyclo[4.2.0]octa-1,3,5-trien-7-yl]-N′-hydroxy-4-{[1-(1-hydroxycyclopropane-1-carbonyl)azetidin-3-yl]oxy}-1,2,5-oxadiazole-3-carboximidamide] | 56.6 | 49.9 | 500.6 |
| C[C@H](O)C(=O)N1CC(Oc2nonc2/C(=N/O)N[C@H]2Cc3ccc(F)cc32)C1 [Example 48, N-[(7S)-4-fluorobicyclo[4.2.0]octa-1,3,5-trien-7-yl]-N′-hydroxy-4-({1-[(2S)-2-hydroxypropanoyl]azetidin-3-yl}oxy)-1,2,5-oxadiazole-3-carboximidamide] | 102 | 88.4 | 400.3 |
| O=C(CO)N[C@H]1C[C@H](Oc2nonc2/C(=N/O)N[C@H]2Cc3ccc(F)cc32)C1 [Example 56, N-{trans-3-[(4-{N-[(7S)-4-fluorobicyclo[4.2.0]octa-1,3,5-trien-7-yl]-N′-hydroxycarbamimidoyl}-1,2,5-oxadiazol-3-yl)oxy]cyclobutyl}-2-hydroxyacetamide] | 1490 | 1340 | 386.1 |
| NC(=O)N[C@H]1C[C@H](Oc2nonc2/C(=N/O)N[C@H]2Cc3ccc(F)cc32)C1 [Example 57, 4-{[trans-3-(carbamoylamino)cyclobutyl]oxy}-N-[(7S)-4-fluorobicyclo[4.2.0]octa-1,3,5-trien-7-yl]-N′-hydroxy-1,2,5-oxadiazole-3-carboximidamide] | 216 | 328 | 954.9 |
